Data taken from the NIST ThermoML archive (doi:10.1016/j.tca.2014.06.026).
Numbers after ± are expanded uncertainties.

Assay: xn = mol fraction of the nth substance listed
Conditions: 101 kPa, Liquid; for speed of sound: Frequency=2 MHz, Sing-around technique in a fixed-path interferometer; for viscosity: Oscillating disk viscometry; for mass density: Vibrating tube method

NC1CCCCC1 [cyclohexylamine] + CN1CCCC1=O
Conditions	mass density [kg/m3]	speed of sound [m/s]	viscosity [mPa·s]
303.15 K, x2 = 0	857.71 ± 0.14	1397.8 ± 0.9	1.797 ± 0.36
303.15 K, x2 = 0.1171	877.49 ± 0.13	1424.2 ± 0.9	1.791 ± 0.36
303.15 K, x2 = 0.2299	896.91 ± 0.13	1448.4 ± 0.9	1.789 ± 0.36
303.15 K, x2 = 0.3385	915.83 ± 0.14	1469.1 ± 0.9	1.784 ± 0.36
303.15 K, x2 = 0.4432	933.86 ± 0.14	1487.8 ± 0.9	1.773 ± 0.35
303.15 K, x2 = 0.5442	950.84 ± 0.14	1504.3 ± 0.9	1.754 ± 0.35
303.15 K, x2 = 0.6417	966.69 ± 0.13	1518.1 ± 0.9	1.727 ± 0.34
303.15 K, x2 = 0.7358	981.66 ± 0.12	1530.2 ± 1	1.693 ± 0.34
303.15 K, x2 = 0.8268	995.81 ± 0.11	1540.3 ± 1	1.648 ± 0.33
303.15 K, x2 = 0.9149	1009.73 ± 0.11	1548.2 ± 1	1.592 ± 0.32
308.15 K, x2 = 0	853.14 ± 0.14	1379.2 ± 0.9	1.704 ± 0.34
308.15 K, x2 = 0.1171	873.25 ± 0.13	1406.8 ± 0.9	1.69 ± 0.34
308.15 K, x2 = 0.2299	892.71 ± 0.13	1429.4 ± 0.9	1.678 ± 0.34
308.15 K, x2 = 0.3385	911.69 ± 0.14	1449.1 ± 0.9	1.668 ± 0.33
308.15 K, x2 = 0.4432	929.76 ± 0.14	1467.1 ± 0.9	1.655 ± 0.33
308.15 K, x2 = 0.5442	946.83 ± 0.14	1483.1 ± 0.9	1.636 ± 0.33
308.15 K, x2 = 0.6417	962.86 ± 0.13	1496.5 ± 0.9	1.607 ± 0.32
308.15 K, x2 = 0.7358	977.92 ± 0.12	1507.7 ± 0.9	1.569 ± 0.31
308.15 K, x2 = 0.8268	992.5 ± 0.1	1517.2 ± 0.9	1.522 ± 0.3
308.15 K, x2 = 0.9149	1006.41 ± 0.11	1524.6 ± 0.9	1.47 ± 0.29
313.15 K, x2 = 0	848.61 ± 0.14	1360.6 ± 0.9	1.617 ± 0.32
313.15 K, x2 = 0.1171	869.06 ± 0.13	1389.2 ± 0.9	1.6 ± 0.32
313.15 K, x2 = 0.2299	888.52 ± 0.13	1411.4 ± 0.9	1.588 ± 0.32
313.15 K, x2 = 0.3385	907.42 ± 0.14	1430.5 ± 0.9	1.575 ± 0.32
313.15 K, x2 = 0.4432	925.48 ± 0.14	1447.6 ± 0.9	1.56 ± 0.31
313.15 K, x2 = 0.5442	942.64 ± 0.14	1462.5 ± 0.9	1.541 ± 0.31
313.15 K, x2 = 0.6417	958.87 ± 0.13	1475.1 ± 0.9	1.514 ± 0.3
313.15 K, x2 = 0.7358	974.13 ± 0.12	1485.7 ± 0.9	1.477 ± 0.3
313.15 K, x2 = 0.8268	988.74 ± 0.11	1494.6 ± 0.9	1.432 ± 0.29
313.15 K, x2 = 0.9149	1002.53 ± 0.11	1500.8 ± 0.9	1.38 ± 0.28
318.15 K, x2 = 0	844.07 ± 0.14	1342 ± 0.9	1.506 ± 0.3
318.15 K, x2 = 0.1171	864.89 ± 0.14	1371.7 ± 0.9	1.484 ± 0.3
318.15 K, x2 = 0.2299	884.43 ± 0.14	1393.8 ± 0.9	1.463 ± 0.29
318.15 K, x2 = 0.3385	903.34 ± 0.14	1412.2 ± 0.9	1.442 ± 0.29
318.15 K, x2 = 0.4432	921.45 ± 0.14	1428.7 ± 0.9	1.422 ± 0.28
318.15 K, x2 = 0.5442	938.47 ± 0.14	1443.2 ± 0.9	1.401 ± 0.28
318.15 K, x2 = 0.6417	954.68 ± 0.13	1455.4 ± 0.9	1.375 ± 0.28
318.15 K, x2 = 0.7358	970.14 ± 0.12	1465.4 ± 0.9	1.341 ± 0.27
318.15 K, x2 = 0.8268	984.78 ± 0.11	1473.6 ± 0.9	1.298 ± 0.26
318.15 K, x2 = 0.9149	998.55 ± 0.11	1477.8 ± 0.9	1.251 ± 0.25
